Test results as given in patent US10966959B2, “Use of a rotifer-derived compound and its analogs for preventing schistosomiasis” (Wisconsin Alumni Research Foundation, priority 2018, dated 2021).
Entries after “also recorded” stand apart in the source; their conditions may differ.

Assays:
[1] = system: S. mansoni cercariae; assay: Cercarial paralysis assay; type: cell-based
Procedure: Infected B. glabrata snails provided by Biomedical Research Institute (BRI, Rockville, Md.) were maintained in artificial pond water and fed Layer Crumbles (chicken feed) (Rural King, Mattoon, Ill.). To obtain S. mansoni cercariae, B. glabrata snails were exposed to light at 26° C. for 1-2 hrs. Artificial pond water containing cercariae was passed through 100 μm cell strainer (Falcon, Corning Inc., Corning, N.Y.) to remove snail food and feces. Cercariae were then collected using custom-made 20 μm cell strainers.
Cercarial Paralysis Assay
To capture the whole field while avoiding excess reflected light in a well, we used the lid of 96-well plate (Costar, Corning Inc., Corning, N.Y.). 40 μL of artificial pond water containing ˜50 cercariae were added to each shallow well on the lid. 10 μL of SPF (dissolved in APW) was then added to reach the final concentration indicated. Using a high-speed camera (Olympus i-SPEED TR), attached to a stereomicroscope (Leica MZ125, Leica Microsystems, Wetzlar, Germany), we recorded cercariae movement at 20-60 fps at 1.25× magnification just prior to addition of test compounds until 3-4 minutes after treatment started. Raw movies were converted to .avi files using i-SPEED Viewer and compressed into JPEG format using ImageJ (addition of compound is considered time 0). We then counted the numbers of free swimming/paralyzed cercariae every 5 seconds for 1 minute and every 30 seconds thereafter for 3 minutes. The number of dead cercariae (those that never swim before and after SPF treatment) were subtracted from data. Experiments were performed in triplicate.
To determine if cercariae react to SPF or other analogs in a dose-dependent manner, serial dilutions of SPF were made in APW. To quantify the paralysis effect of SPF, the movement of the cercariae was recorded, as well as the number of free-swimming and non-swimming cercariae. In the absence of SPF, over 82% of cercariae were free-swimming over three minutes (FIG. 1(A)). In the presence of 2.5 nM SPF, the percentage of free-swimming cercariae dropped to 67% at three minutes post drug treatment. As the concentration of SPF increased, the rate of paralysis increased, and more cercariae were paralyzed at the end of the treatment.

[2] = system: S. mansoni cercariae; assay: Mouse infection experiment (mouse tail exposure to drug-treated cercariae); type: in vivo; conditions: for liver granulomas / schistosome eggs in histological liver sections / adult worms recovered from infected mice: six weeks post infection
Procedure: Mouse Infection Experiment
Mouse infections were performed by exposing mouse tails to S. mansoni cercariae according to standard protocol from BRI with slight modifications (see Lewis et al., Curr. Protoc. Immunol., 2001, Chapter 19). Briefly, we secured mice in rodent restrainers (Thomas Scientific, Cat #551-BSRR) and put them vertically on top of a rack with grids. We pipetted 100 μL of each drug in proper concentration into a skinny glass tube (Fisher Scientific, Cat #14-958A) inside a 12×75 mm holding glass tube (VWR, Cat #47729-570). 300 μL of APW containing ˜200 cercariae were pipetted into each skinny tube and incubated for 10 mins before we inserted mouse tail. Mouse tails were wiped with APW-moistened Kimwipes, inserted into the skinny tube, and exposed to cercariae for 30 mins. We sacrificed and perfused these mice six week-post infection. For each drug, we initially used three mice for controls (APW only) and three mice for each concentration tested except for 25 nM Ht-13-A and Ht-13-A-pr. We then repeated the experiments again with three mice for each condition. In addition, we included six mice for 25 nM Ht-13-A and Ht-13-A-pr so that we had six biological replicates total for each condition.
Adult worms were recovered by hepatic portal vein perfusion and briefly incubated in 2.5% Tricaine (Sigma) to separate males and females. We counted total numbers of adult worms under a stereomicroscope (Leica MZ75, Leica Microsystems). Livers from infected mice were fixed in 4% formaldehyde in PBS overnight. Largest liver lobes (left lobe) were submitted to University of Wisconsin-Madison Histology Core Facility for sectioning and Hematoxylin and Eosin staining. Each left lobe was evenly cut into 4-6 pieces and paraffin embedded on a large cassette. One slide (4-6 liver sections) for each liver was used for histological examination, which provided a representative view throughout the whole liver lobe. We took a tiled image of the whole slide using a Zeiss Axio Zoom microscope and used ImageJ (National Institutes of Health, Bethesda, Md.) to determine the area of each section. Total numbers of eggs in each section were counted and normalized to the area.
To determine if SPF-induced paralysis could prevent infection, ˜200 cercariae were treated with different concentrations of SPF (25 nM, 250 nM, and 2.5 μM) for 10 min followed by a 30 min mouse tail infection (N=6 for each condition). Six-weeks post infection, the mice were euthanized, hepatic portal vein perfusion was performed, recovered schistosomes were counted, and mouse liver pathology was examined. In the control group, 83 adult worms were recovered on average (FIG. 2(A)). Livers from these mice appeared dark in color and had extensive granuloma formation (FIG. 2(A)). […] Without wishing to be bound by theory, it is possible that mechanical and/or chemical stimuli from mouse tails may overcome the SPF-induced paralytic effects at low SPF concentrations.

`COc1ccc2[nH]cc3c2c1OC1C(C)CN(C)C1C3` (centres unmarked) [SPF, 5-methoxy-7,9-dimethyl-6a,7,8,9,9a,10-hexahydro-2H-pyrrolo[2′,3′:6,7]oxepino[4,3,2-cd]indole] was tested, and the “percentage of free-swimming cercariae” value ([1]; 2.5 nM, three minutes post drug treatment) was 67%, the “paralytic effect on cercariae” value ([1]; 25 nM, in vitro) was “could paralyze most cercariae” and the “paralytic effect on cercariae” value ([1]; 250 nM) was “maximum paralytic effect; also recorded: full paralysis”. The “time until majority of cercariae paralyzed” value ([1]; 250 nM) was ≤ 30 s, the “paralytic effect on cercariae” value ([1]; 2.5 μM) was “maximum paralytic effect; also recorded: full paralysis” and the “time until majority of cercariae paralyzed” value ([1]; 2.5 μM) was ≤ 30 s. For the same molecule, the “effect on mouse infection” value ([2]; 25 nM) was “not as severe”, the “blocking / inhibition of infection” value ([2]; 250 nM) was “complete inhibition of infection” and the liver granulomas ([2]; 250 nM) was “no granulomas were observed”. The “schistosome eggs in histological liver sections” value ([2]; 250 nM) was “clear of schistosome eggs”, the “blocking / inhibition of infection” value ([2]; 2.5 μM) was “complete inhibition of infection” and the liver granulomas ([2]; 2.5 μM) was “no granulomas were observed”. For the same molecule, the “schistosome eggs in histological liver sections” value ([2]; 2.5 μM) was “clear of schistosome eggs”, the “adult worms recovered from infected mice” value ([2]; cercariae treated with 250 nM for 10 min) was “no adult worms could be recovered” and the “adult worms recovered from infected mice” value ([2]; cercariae treated with 2.5 μM for 10 min) was “no adult worms could be recovered”. For the same molecule, the “liver appearance (post perfusion)” value ([2]; higher concentrations of drug treatment) was “normal morphologies with few or no granulomas” and the “liver appearance (post perfusion)” value ([2]; lower concentrations of drug) was “darker in color and contained more granulomas”.
